Biological target: USP30 (Homo sapiens (Human), UniProt Q70CQ3)
Assay: In vitro biochemical assay for USP30 enzyme (Ubiquitin-Rhodamine110 cleavage, fluorescence)
Conditions: 20 nM USP30, 15 min pre-incubation, 100 nM Ub rhodamine substrate, 2 hrs at room temperature
Method: In vitro biochemical assay for USP30 enzyme
The in vitro assay for USP30 evaluates the ability of a test compound to inhibit the activity of the enzyme to cleave ubiquitin from a substrate. Ubiquitin-rhodamine 110 is a quenched, fluorescent substrate for USP30. Cleavage of the amide bond between the C-terminal glycine of ubiquitin and rhodamine results in an increase in rhodamine fluorescence at 535 nm (Exc. 485 nm).
Incubation of the substrate in the presence or absence of USP30 was compared to confirm the deubiquitylating activity of USP30. The USP30 enzyme assay was performed by pre-incubating 20 nM of USP30 with varying concentration of a test compound in the assay buffer [PBS (pH 7.4), 1 mM DTT, 0.01% Tween 20, 0.01% BSA, DMSO final concentration is 1%] for 15 mins at room temperature, following which 100 nM of substrate Ub rhodamine was added and incubated at room temperature for 2 hrs and the plate was read for fluorescence intensity at Ex. 485 nm/535 nm in VICTOR X5 plate reader. The percent inhibition of activity of the enzyme is calculated by comparing counts in the presence and absence of compounds.
Test compounds were screened at various concentrations (10-12 tested concentrations) and dose response curves were generated was generated using GraphPad Prism software Version 7 (San Diego, Calif., USA) with non-linear regression curve fit for sigmoidal dose response (variable slope).

Sequence of USP30 (Q70CQ3 whole entry): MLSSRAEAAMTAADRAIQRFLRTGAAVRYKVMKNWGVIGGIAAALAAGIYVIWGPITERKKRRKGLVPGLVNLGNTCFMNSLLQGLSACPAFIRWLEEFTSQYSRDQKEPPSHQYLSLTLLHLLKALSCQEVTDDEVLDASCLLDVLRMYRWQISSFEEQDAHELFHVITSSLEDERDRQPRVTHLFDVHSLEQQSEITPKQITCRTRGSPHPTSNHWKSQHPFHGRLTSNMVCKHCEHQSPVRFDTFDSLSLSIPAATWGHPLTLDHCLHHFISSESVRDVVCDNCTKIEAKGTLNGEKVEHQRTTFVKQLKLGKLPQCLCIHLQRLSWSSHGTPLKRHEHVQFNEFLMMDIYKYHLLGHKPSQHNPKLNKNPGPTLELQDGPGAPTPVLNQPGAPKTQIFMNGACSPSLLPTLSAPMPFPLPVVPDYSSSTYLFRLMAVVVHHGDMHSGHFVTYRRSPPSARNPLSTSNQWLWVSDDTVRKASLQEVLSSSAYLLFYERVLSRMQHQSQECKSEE

Row | SMILES | IC50 [nM]
1 | CC(C)(C)NS(=O)(=O)c1cccc2c(NC(=O)[C@H](Cc3ccc(F)cc3)NC(=O)c3ccccc3)cccc12 [Compound 7e, (S)-N-(1-((5-(N-(tert-butyl)sulfamoyl)naphthalen-1-yl)amino)-3-(4-fluorophenyl)-1-oxopropan-2-yl)benzamide] | 153
2 | COc1ccc(C[C@H](NC(=O)c2ccccc2)C(=O)Nc2cccc3c(S(=O)(=O)NC(C)(C)C)cccc23)cc1 [Compound 7f, (S)-N-(1-((5-(N-(tert-butyl)sulfamoyl)naphthalen-1-yl)amino)-3-(4-methoxyphenyl)-1-oxopropan-2-yl)benzamide] | 89
3 | CC(C)(C)NS(=O)(=O)c1cccc2c(NC(=O)[C@H](CC3CC3)NC(=O)c3ccccc3)cccc12 [Compound 7h, (S)-N-(1-((5-(N-(tert-butyl)sulfamoyl)naphthalen-1-yl)amino)-3-cyclopropyl-1-oxopropan-2-yl)benzamide] | 2200
4 | CC(C)(C)NS(=O)(=O)c1cccc2c(NC(=O)[C@H](Cc3cnc[nH]3)NC(=O)c3ccccc3)cccc12 [Compound 7i, (S)-N-(1-((5-(N-(tert-butyl)sulfamoyl)naphthalen-1-yl)amino)-3-(1H-imidazol-5-yl)-1-oxopropan-2-yl)benzamide] | > 10000
5 | CC(C)(C)NS(=O)(=O)c1cccc2c(NC(=O)[C@H](Cc3ccc(C#N)cc3)NC(=O)c3ccccc3)cccc12 [Compound 7j, (S)-N-(1-((5-(N-(tert-butyl)sulfamoyl)naphthalen-1-yl)amino)-3-(4-cyanophenyl)-1-oxopropan-2-yl)benzamide] | 273
6 | CC(C)(C)NS(=O)(=O)c1cccc2c(NC(=O)[C@H](Cc3cccs3)NC(=O)c3ccccc3)cccc12 [Compound 7k, (S)-N-(1-((5-(N-(tert-butyl)sulfamoyl)naphthalen-1-yl)amino)-1-oxo-3-(thiophen-2-yl)propan-2-yl)benzamide] | 230
7 | Cc1ccccc1C[C@H](NC(=O)c1ccccc1)C(=O)Nc1cccc2c(S(=O)(=O)NC(C)(C)C)cccc12 [Compound 7l, (S)-N-(1-((5-(N-(tert-butyl)sulfamoyl)naphthalen-1-yl)amino)-1-oxo-3-(o-tolyl)propan-2-yl)benzamide] | > 10000
8 | Cc1ccc(C[C@H](NC(=O)c2ccccc2)C(=O)Nc2cccc3c(S(=O)(=O)NC(C)(C)C)cccc23)cc1 [Compound 7m, (S)-N-(1-((5-(N-(tert-butyl)sulfamoyl)naphthalen-1-yl)amino)-1-oxo-3-(p-tolyl)propan-2-yl)benzamide] | > 10000
9 | CC(C)(C)NS(=O)(=O)c1cccc2c(NC(=O)[C@H](Cc3ccc(Cl)cc3)NC(=O)c3ccccc3)cccc12 [Compound 7n, (S)-N-(1-((5-(N-(tert-butyl)sulfamoyl)naphthalen-1-yl)amino)-3-(4-chlorophenyl)-1-oxopropan-2-yl)benzamide] | 446
10 | CC(C)(C)NS(=O)(=O)c1ccc(NC(=O)[C@H](Cc2ccccc2)NC(=O)c2ccccc2)cc1 [Compound 10a, (S)-N-(1-((4-(N-(tert-butyl)sulfamoyl)phenyl)amino)-1-oxo-3-phenylpropan-2-yl)benzamide] | > 10000
11 | CC(C)(C)NS(=O)(=O)c1ccc(NC(=O)[C@H](Cc2ccccc2)NC(=O)C2CCCCC2)cc1 [Compound 10b, (S)—N-(1-((4-(N-(tert-butyl)sulfamoyl)phenyl)amino)-1-oxo-3-phenylpropan-2-yl)cyclohexanecarboxamide] | 59
12 | CC(C)(C)NS(=O)(=O)c1ccc(NC(=O)[C@H](Cc2ccccc2)NC(=O)C2CCCC2)cc1 [Compound 10c, (S)-N-(1-((4-(N-(tert-butyl)sulfamoyl)phenyl)amino)-1-oxo-3-phenylpropan-2-yl)cyclopentanecarboxamide] | 71
13 | CC(C)(C)NS(=O)(=O)c1ccc(NC(=O)[C@@H](Cc2ccccc2)NC(=O)C2CCCCC2)cc1 [Compound 10d, (R)-N-(1-((4-(N-(tert-butyl)sulfamoyl)phenyl)amino)-1-oxo-3-phenylpropan-2-yl)cyclohexanecarboxamide] | 28
14 | CC(C)(C)NS(=O)(=O)c1ccc(NC(=O)[C@H](Cc2ccccc2)NC(=O)c2ccc(F)cc2)cc1 [Compound 10e] | 17
15 | CC(C)(C)NS(=O)(=O)c1ccc(NC(=O)[C@H](Cc2ccccc2)NC(=O)c2ccc(C(=O)O)cc2)cc1 [Compound 10f, (S)-4-((1-((4-(N-(tert-butyl)sulfamoyl)phenyl)amino)-1-oxo-3-phenylpropan-2-yl)carbamoyl)benzoic acid] | > 10000

Now from value to compound:

Row | IC50 [nM] | SMILES
16 | > 10000 | COC(=O)c1ccc(C(=O)N[C@@H](Cc2ccccc2)C(=O)Nc2ccc(S(=O)(=O)NC(C)(C)C)cc2)cc1 [Compound 10g, methyl (S)-4-((1-((4-(N-(tert-butyl)sulfamoyl)phenyl)amino)-1-oxo-3-phenylpropan-2-yl)carbamoyl)benzoate]
17 | 250 | CC(C)(C)NS(=O)(=O)c1ccc(NC(=O)[C@H](Cc2ccccc2)NC(=O)c2ccccn2)cc1 [Compound 10h, (S)-N-(1-((4-(N-(tert-butyl)sulfamoyl)phenyl)amino)-1-oxo-3-phenylpropan-2-yl)picolinamide]
18 | > 10000 | CC(C)(C)NS(=O)(=O)c1ccc(NC(=O)[C@H](Cc2ccccc2)NC(=O)[C@@H]2CCCN2)cc1 [Compound 10i, (S)-N-((S)-1-((4-(N-(tert-butyl)sulfamoyl)phenyl)amino)-1-oxo-3-phenylpropan-2-yl)pyrrolidine-2-carboxamide]
19 | 148 | CC(C)(C)NS(=O)(=O)c1ccc(NC(=O)[C@H](Cc2ccccc2)NC(=O)c2cccnn2)cc1 [Compound 10j, (S)-N-(1-((4-(N-(tert-butyl)sulfamoyl)phenyl)amino)-1-oxo-3-phenylpropan-2-yl)pyridazine-3-carboxamide]
20 | 225 | CC(C)(C)NS(=O)(=O)c1ccc(NC(=O)[C@H](CC2CCCCC2)NC(=O)c2ccccc2)cc1 [Compound 14a, (S)-N-(1-((4-(N-(tert-butyl)sulfamoyl)phenyl)amino)-3-cyclohexyl-1-oxopropan-2-yl)benzamide]
21 | 83 | CC(C)(C)NS(=O)(=O)c1ccc(NC(=O)[C@H](CC2CCCCC2)NC(=O)C2CCCCC2)cc1 [Compound 14b, (S)-N-(1-((4-(N-(tert-butyl)sulfamoyl)phenyl)amino)-3-cyclohexyl-1-oxopropan-2-yl)cyclohexanecarboxamide]
22 | 23 | CC(C)(C)NS(=O)(=O)c1ccc(NC(=O)[C@H](CC2CCCCC2)NC(=O)c2ccc(F)cc2)cc1 [Compound 14c, (S)-N-(1-((4-(N-(tert-butyl)sulfamoyl)phenyl)amino)-3-cyclohexyl-1-oxopropan-2-yl)-4-fluorobenzamide]
23 | > 10000 | CC(C)(C)NS(=O)(=O)c1ccc(NC(=O)[C@H](CC2CCCCC2)NC(=O)c2ccc(C(F)(F)F)cc2)cc1 [Compound 14d, (S)-N-(1-((4-(N-(tert-butyl)sulfamoyl)phenyl)amino)-3-cyclohexyl-1-oxopropan-2-yl)-4-(trifluoromethyl)benzamide]
24 | 120 | CC(C)(C)NS(=O)(=O)c1ccc(NC(=O)[C@H](CC2CCCCC2)NC(=O)C2CCCC2)cc1 [Compound 14e, (S)-N-(1-((4-(N-(tert-butyl)sulfamoyl)phenyl)amino)-3-cyclohexyl-1-oxopropan-2-yl)cyclopentanecarboxamide]
